Reference: patent US8022036B2, “Use of thymosin alpha 1 for the treatment of immunological diseases” (Sigma-Tau Industrie Farmaceutiche Riunite S.p.A., priority 2006, dated 2011)
No end group written: not given here.

Assays:
[1] = system: bone marrow cells (GM-DCs, FL-DCs); test: Murine DC generation from bone marrow cells, flow cytometry and light microscopy; assay type: cell-based, mouse
Text: GM-DCs or FL-DCs were obtained from purified CD14+ monocytes from healthy donors or transplanted patients (1 month post-HSCT) cultured in Iscove's modified medium for 7-9 days, in the presence of rGM-CSF (Schering-Plough, Milan, Italy) and rIL-4 (Peprotech, Inalco, Milan, Italy) or FLT3-L (Immunex Corporation, Seattle, Wash.) (Blood. 2004; 103:4232-4239). DC recovery was between 20-30% reduced in cultures from transplanted patients. Murine GM-DCs or FL-DCs were obtained from bone marrow cells for 7-9 days, as described (Blood. 2004; 103:4232-4239). Thymosin alpha 1 and sThymosin alpha 1 were added to the cultures at 20 ng/mL. DCs (>99% CD11c+ consisting of 90-95% CD8-, 5-10% CD8+, and 1-5% B220+ cells) were purified from spleens (spDCs) by magnetic-activated sorting using CD11c MicroBeads and MidiMacs (Miltenyi Biotech). DC populations were further separated into CD8−, CD8+ and B220+ fractions by means of CD8 or B220 MicroBeads (Miltenyi Biotech). DCs were pulsed in serum-free Iscove medium for 24 hours with live unopsonized Aspergillus conidia or Zymosan from Saccharomyces cerevisiae (Sigma) or CpG-ODN 2006 as described.7 Phagocytosis was done as described (Blood. 2004; 103:4232-4239). Photographs were taken using a high Resolution Microscopy Color Camera AxioCam, using the AxioVision Software Rel. 3.1 (Carl Zeiss, Milan, Italy).
DCs were analyzed for antigen expression with a FACScan flow cytofluorometer (Becton Dickinson, Mountain View, Calif.) equipped with CELLQuest™ software and using conjugated mAbs from PharMingen (Blood. 2004; 103:4232-4239).
To assess how Thymosin alpha 1 would affect the phenotypic and functional properties of murine DCs, bone marrow cells were grown for 7-9 days in medium containing GM-CSF/IL4 or FLT3L, in the presence of Thymosin alpha 1 or a control, scrambled peptide. After maturation, cells were analyzed by flow cytometry and light microscopy (FIG. 1A).
(A) Surface expression of CD11c, CD 11b and B220 on DCs derived from bone marrow of C57BL6, TLR9−/− or IFN-aβR−/−mice and cultured with GM-CSF/IL-4 (GM-DCs) or FLT3L (FL-DCs) in the presence of Thymosin alpha 1 (+) or the scrambled peptide ( ). Percent of double positive cells is indicated.

splenic CD4+ T cells = test: Th1/T reg priming in vitro of splenic CD4+ T cells by Aspergillus-pulsed DCs (ELISPOT, flow cytometry); assay type: cell-based, mouse
Protocol: IDO expression and functional activity were assessed as described in Nat. Immunol. 2002; 3:1097-1101. Generation, purification and activity of T reg cells Splenic CD4+ T-cells were cocultured with conidia-pulsed DCs for 5 days […] before flow cytometry or ELISPOT assay. 1-MT (Sigma-Aldrich) was used at 2 μM. CD4+CD25+ and CD4+CD25− cells (>90% pure on FACS analysis) were separated by magnetic cell sorting from lung and TLN (J. Immunol. 2006; 176:1712-1723). For T reg cell inhibition, 5×10^4 TLN T reg cells were added to 3×10^5 CD4+CD25− cells, both from transplanted mice, stimulated with 3×10^4 autologous Aspergillus conidia-pulsed spDCs or with or 1.5×10^5 allogeneic spDCs from naïve donor mice for five days before H^3-thymidine labeling. Purified peritoneal CD 11b+Gr−1+PMN (>98% pure on FACS analysis) (2×10^6) were exposed to resting conidia in the presence of 4×10^5 CD4+CD25+ for 60 min for oxidant production or 24 hours for cytokine production (J. Immunol. 2006; 176:1712-1723).
Cytokine content was assessed by enzyme-linked immunosorbent assays (Endogen Human Elisa Kits, R&D Systems and Euroclone, Milan, Italy). AID EliSpot assay kits (Amplimedical, Buttigliera Alta, Turin, Italy) were used on purified splenic CD4+ Tcells cocultured with conidia-pulsed DCs for 5 days to enumerate cytokine-producing cells (Blood. 2003; 102:3807-3814). 1-MT was used at 2 μM.
(A) Frequency of IFN-γ-/IL-10-producing splenic CD4+ T cells activated by Aspergillus-pulsed Thymosin alpha 1-treated GM-DCs or FL-DCs. 1-MT was present in selected cultures. Plates were read with the AID-EliSpot Reader System (Amplimedical). Values are means±SE per 10^6 cells of samples from 3-5 experiments, calculated using replicates of serial twofold dilutions of cells. (*) P<0.05, conidia-exposed versus unexposed cells; (**) P<0.05, thymosin-exposed versus unexposed cells.
(B) Phenotypic analysis of CD4+ cells cultured alone (−) or as in (A). Numbers represent the percentage of double positive cells.

CD4+ T cell clones = test: Aspergillus-specific or alloreactive human T cell clones responding to DCs; assay type: cell-based; settings: healthy donors or transplanted patients
Protocol: Aspergillus-specific human CD4+ T cell clones were generated from peripheral blood CD4+CD45RA+ T cells added at limiting dilution concentrations to irradiated (20 Gy) feeder autologous peripheral blood cells and stimulated with conidia-pulsed DCs or allogeneic DCs (Blood. 2005; 106:4397-4406). Growing clones were assessed for specificity against fungus-pulsed DCs, allogeneic DCs, autologous irradiated cells (as a negative control) and 0.5% phytohemoagglutinin (as a positive control) by H^3-thymidine (Amersham Biosciences, Little Chalfont, UK) labeling or cytokine content in supernatants 2 days later (Blood. 2005; 106:4397-4406).
(E) Frequency of Aspergillus-specific or alloreactive T cell clones responding to the different types of fungus-pulsed DCs or unpulsed DCs, respectively, from healthy donors or transplanted patients. Growing clones were assessed for specificity after 2 days of stimulation with DCs. (*) p<0.05, GM-DCs versus peripheral blood cells (−). (**) P<0.05, HSCT-DCs versus all other DCs. nd, not done.

“Thymosin alpha 1: naturally occurring thymic peptide; supplied as purified, endotoxin-free sterile lyophilized acetylated polypeptide from SciClone Pharmaceuticals (Ac-SDAAVDTSSEITTKDLKEKKEVVEEAEN; UniProt P06454 2-29, looked up)” was tested, and the “B220+CD11c+ cells in FL-DCs” value ([1]; FLT3L culture, 20 ng/mL) was “not increased”, the “total yield of cells” value ([1]; GM-CSF/IL-4 culture, 20 ng/mL) was “did not affect total yield of cells” and the “expansion of pDCs in GM-DCs from TLR9-/- or IFN-aβR-/- mice” value ([1]; GM-DCs from knockout mice) was “not observed”. For the same substance, the “expansion of B220+CD11c+ cells” value ([1]; Thymosin alpha 1 alone, without GM-CSF/IL-4 or FLT3L) was “not observed”, the “occurrence of pDCs (B220+CD11c+ cells) in GM-DCs” value ([1]; bone marrow cells, GM-CSF/IL-4, 7-9 days, peptide 20 ng/mL) was “greatly increased the occurrence of pDCs in GM-DCs” and the “priming for IL-10-producing cells by FL-DCs” value (splenic CD4+ T cells; Aspergillus-pulsed FL-DCs, 5 days coculture) was “increased priming”. The “priming for IFN-γ-/IL-10-producing CD4+ T cells by GM-DCs” value (splenic CD4+ T cells; Aspergillus-pulsed GM-DCs, 5 days coculture) was “increased priming”, the “CD4+CD25+ T cells positive for intracellular Foxp3 and surface CTLA-4” value (splenic CD4+ T cells; cultured with Thymosin alpha 1-induced DCs) was “a significant proportion of the CD4+CD25+ T cells stained positive for intracellular Foxp3 and surface CTLA-4” and the “ability of DCs to activate fungus- or alloantigen-specific T cell reactivity” value (CD4+ T cell clones) was “modified neither the antigen-specific T cell responses induced by DCs nor the allostimulatory capacity”.
